Patent US8673929B2, “4,6-di- and 2,4,6-trisubstituted quinazoline derivatives and pharmaceutical compositions useful for treating viral infections” (priority 2006, dated 2014)
pEC50: −log10 of the molar value.

Experiments:
HCV replicon = test: Anti-HCV replicon assay, EC50 (luciferase readout); assay type: cell-based; details: Hepatitis C virus, 72 h; Huh-7 HCV replicon cells, 3 days incubation, luciferase luminescence
Description: (§1) The anti HCV activity of the quinazoline derivatives of this invention was tested in a human hepatoma Huh-7 cell line harbouring a HCV replicon. The assay comprised the following steps:
(§2) Step 1: compound preparation and serial dilution • 1. for water soluble quinazoline derivatives, a volume of 500 μL of solution in cell media (DMEM, 10% FBS, P/S, L-Glutamine) was prepared with a concentration being twice the concentration of the starting final serial dilution concentration. A volume of 150 μL of the solution was added to the pre-specified wells in column 1 of a 96-well cell culture plate (PerkinElmer, white plate, cat. #6005181, for EC50 assay; black plate, cat. #6005182 for CC50 assay). The rest of the plate, columns 2-12, was filled with 100 μL of cell media. The plate was then placed on a Precision 2000 Workstation to start the serial dilution. Compounds were diluted three times each step from column 1 to column 10. Column 11 was used as a blank control (no compound added). • 2. for quinazoline derivatives requiring DMSO to dissolve, serial dilution is performed in 50% DMSO in a 384-well plate. A solution containing a compound at 100-fold concentration of the starting final serial dilution concentration was prepared in 50% DMSO and added to the pre-specified wells in column 1 of a polypropylene 384-well plate. The plate was then placed on a Precision 2000 Workstation to start the serial dilution. After the serial dilution, a volume of 2 μL of the solution was transferred from the 384-well plate to a 96-well cell culture plate containing 100 μL of cell media on a Biomek FX Workstation. The DMSO concentration in the final assay condition was 0.5% after cells are added to the plate and the total volume in each well is brought to 200 μL.
(§3) Step 2: to each well of the serial dilution plate prepared above, 100 μL of cell media containing 6000 suspended Huh-7 HCV replicon cells was added with a Multidrop workstation. The plates were incubated for 3 days at 37° C. with 5% CO2.
(§4) Step 3: detection: • a) for the EC50 assay, the media in a 96-well cell culture plate was aspirated with a Biotek EL405 plate-washer. A volume of 200 μL of a solution containing a 1:1 mixture of cell-lysis buffer (Promega, Luciferase Cell Culture Lysis 5× Reagent, cat. #E1531) and luciferase substrate solution (Promega, Luciferase Assay, cat.# E4550) was added to each well of the plate with Multidrop. The plate was incubated for 30 minutes at room temperature before the luminescence signal was measured with a TopCount plate-reader. • b) for the CC50 assay, a volume of 100 μL of pre-mixed CellTiter-Glo (Promega, cat.# G7572) solution is added directly to the cell culture in each well of the plate and the luminescence signal is measured with a TopCount plate-reader after 10 minutes of incubation at room temperature.
(§5) Results in the table below are expressed by the following data: • the 50% cytostatic concentration (CC50), i.e. the concentration that results in 50% inhibition of cell growth, and • the 50% effective concentration (EC50), i.e. the concentration that […].

[1] = CC50 assay in the anti-HCV replicon assay (CellTiter-Glo); assay type: cell-based, human; details: human, Huh-7 hepatoma cells harbouring an HCV replicon; Huh-7 HCV replicon cells, 3 days incubation, CellTiter-Glo luminescence
Description: as §1, §2, §3, §4, §5

SMILES | pEC50 (HCV replicon) | CC50 at 3 days [1] [µM]
CC(C)Oc1nc(N)nc2ccc(-c3ccc(F)cc3Cl)cc12 [Example 81, 6-(2-Chloro-4-fluoro-phenyl)-4-isopropoxy-quinazolin-2-ylamine] | 5.00 to 6.00 | 10 to 20
CC(C)Oc1nc(N)nc2ccc(-c3cccc(Cl)c3)cc12 [Example 82, 6-(3-Chloro-phenyl)-4-isopropoxy-quinazolin-2-ylamine] | 5.00 to 6.00 | > 20
CC(C)Oc1nc(N)nc2ccc(-c3cc4ccccc4s3)cc12 [Example 83, 6-Benzo[b]thiophen-2-yl-4-isopropoxy-quinazolin-2-ylamine] | 5.00 to 6.00 | 10 to 20
CC(C)Oc1nc(N)nc2ccc(-c3ccoc3)cc12 [Example 84, 6-Furan-3-yl-4-isopropoxy-quinazolin-2-ylamine] | 6.00 to 6.52 | 10 to 20
CC(C)Oc1nc(N)nc2ccc(-c3ccn[nH]3)cc12 [Example 85, 4-Isopropoxy-6-(2H-pyrazol-3-yl)-quinazolin-2-ylamine] | 6.00 to 6.52 | > 20
CC(C)Oc1nc(N)nc2ccc(-c3cc4ccccc4o3)cc12 [Example 86, 6-Benzofuran-2-yl-4-isopropoxy-quinazolin-2-ylamine] | 6.00 to 6.52 | > 20
CNC(=O)c1ccc(-c2ccc3nc(N)nc(OC(C)C)c3c2)cc1 [Example 87, 4-(2-Amino-4-isopropoxy-quinazolin-6-yl)-N-methyl-benzamide] | 6.00 to 6.52 | 10 to 20
CC(C)Oc1nc(N)nc2ccc(-c3ccco3)cc12 [Example 88, 6-Furan-2-yl-4-isopropoxy-quinazolin-2-ylamine] | 5.00 to 6.00 | > 20
CC(C)Oc1nc(N)nc2ccc(-c3ccsc3)cc12 [Example 89, 4-Isopropoxy-6-thiophen-3-yl-quinazolin-2-ylamine] | 6.00 to 6.52 | 10 to 20
CC(C)Oc1nc(N)nc2ccc(-c3cccnc3)cc12 [Example 90, 4-Isopropoxy-6-pyridin-3-yl-quinazolin-2-ylamine] | 6.00 to 6.52 | > 20
CC(C)Oc1nc(N)nc2ccc(-c3ccc(F)c(F)c3)cc12 [Example 91, 6-(3,4-Difluoro-phenyl)-4-isopropoxy-quinazolin-2-ylamine] | 6.00 to 6.52 | 10 to 20
CC(C)Oc1nc(N)nc2ccc(-c3ccncc3)cc12 [Example 92, 4-Isopropoxy-6-pyridin-4-yl-quinazolin-2-ylamine] | 6.00 to 6.52 | 10 to 20
CC(C)Oc1nc(N)nc2ccc(-c3cccc(C#N)c3)cc12 [Example 93, 3-(2-Amino-4-isopropoxy-quinazolin-6-yl)-benzonitrile] | 6.00 to 6.52 | 10 to 20
CC(C)Oc1nc(N)nc2ccc(-c3cc(F)cc(F)c3)cc12 [Example 94, 6-(3,5-Difluoro-phenyl)-4-isopropoxy-quinazolin-2-ylamine] | 5.00 to 6.00 | > 20
CC(C)Oc1nc(N)nc2ccc(-c3ccc(OC(F)(F)F)cc3)cc12 [Example 95, 4-Isopropoxy-6-(4-trifluoromethoxy-phenyl)-quinazolin-2-ylamine] | 5.00 to 6.00 | > 20
CC(C)Oc1nc(N)nc2ccc(-c3ccc(N)cc3)cc12 [Example 96, 6-(4-Amino-phenyl)-4-isopropoxy-quinazolin-2-ylamine] | 6.00 to 6.52 | > 20
CC(C)Oc1nc(N)nc2ccc(-c3ccc(F)c(F)c3F)cc12 [Example 97, 4-Isopropoxy-6-(2,3,4-trifluoro-phenyl)-quinazolin-2-ylamine] | 6.00 to 6.52 | > 20
CC(C)Oc1nc(N)nc2ccc(-c3ccccc3OCc3ccccc3)cc12 [Example 98, 6-(2-Benzyloxy-phenyl)-4-isopropoxy-quinazolin-2-ylamine] | 5.00 to 6.00 | < 10

SMILES | pEC50 (HCV replicon) | CC50 at 3 days [1] [µM]
CC(C)Oc1nc(N)nc2ccc(-c3ccc(C#N)cc3)cc12 [Example 99, 4-(2-Amino-4-isopropoxy-quinazolin-6-yl)-benzonitrile] | 6.00 to 6.52 | > 20
CC(C)Oc1nc(N)nc2ccc(-c3ccc(O)cc3)cc12 [Example 100, 4-(2-Amino-4-isopropoxy-quinazolin-6-yl)-phenol] | > 6.52 | 10 to 20
CC(C)Oc1nc(N)nc2ccc(-c3cnc4ccccc4c3)cc12 [Example 101, 4-Isopropoxy-6-quinolin-3-yl-quinazolin-2-ylamine] | 5.00 to 6.00 | 10 to 20
Nc1nc(OCC2CCC2)c2cc(-c3ccc(F)cc3F)ccc2n1 [Example 102, 4-Cyclobutylmethoxy-6-(2,4-difluoro-phenyl)-quinazolin-2-ylamine] | 5.00 to 6.00 | < 10
Nc1nc(OCC2CCC2)c2cc(-c3ccc(F)cc3)ccc2n1 [Example 103, 4-Cyclobutylmethoxy-6-(4-fluoro-phenyl)-quinazolin-2-ylamine] | 5.00 to 6.00 | 10 to 20
Nc1nc(OCC2CCC2)c2cc(-c3cccc(F)c3F)ccc2n1 [Example 104, 4-Cyclobutylmethoxy-6-(2,3-difluoro-phenyl)-quinazolin-2-ylamine] | 5.00 to 6.00 | > 20
Cc1ccccc1-c1ccc2nc(N)nc(OCC3CCC3)c2c1 [Example 105, 4-Cyclobutylmethoxy-6-o-tolyl-quinazolin-2-ylamine] | 5.00 to 6.00 | 10 to 20
Nc1nc(OCC2CCC2)c2cc(-c3cccc(C(F)(F)F)c3)ccc2n1 [Example 106, 4-Cyclobutylmethoxy-6-(3-trifluoromethyl-phenyl)-quinazolin-2-ylamine] | 5.00 to 6.00 | 10 to 20
Cc1ccc(-c2ccc3nc(N)nc(OCC4CCC4)c3c2)cc1 [Example 107, 4-Cyclobutylmethoxy-6-p-tolyl-quinazolin-2-ylamine] | 5.00 to 6.00 | > 20
Nc1nc(OCC2CCC2)c2cc(-c3ccc(Cl)cc3Cl)ccc2n1 [Example 108, 4-Cyclobutylmethoxy-6-(2,4-dichloro-phenyl)-quinazolin-2-ylamine] | 5.00 to 6.00 | > 20
CCOc1ccc(-c2ccc3nc(N)nc(OCC4CCC4)c3c2)cc1 [Example 109, 4-Cyclobutylmethoxy-6-(4-ethoxy-phenyl)-quinazolin-2-ylamine] | 5.00 to 6.00 | > 20
Nc1nc(OCC2CCC2)c2cc(-c3ccc(F)cc3Cl)ccc2n1 [Example 110, 4-Cyclobutylmethoxy-6-(2-chloro-4-fluoro-phenyl)-quinazolin-2-ylamine] | 5.00 to 6.00 | 10 to 20
Nc1nc(OCC2CCC2)c2cc(-c3ccoc3)ccc2n1 [Example 111, 4-Cyclobutylmethoxy-6-furan-3-yl-quinazolin-2-ylamine] | 6.00 to 6.52 | 10 to 20
Nc1nc(OCC2CCC2)c2cc(-c3ccc(F)c(Cl)c3)ccc2n1 [Example 112, 4-Cyclobutylmethoxy-6-(3-chloro-4-fluoro-phenyl)-quinazolin-2-ylamine] | 5.00 to 6.00 | > 20
Nc1nc(OCC2CCC2)c2cc(-c3ccn[nH]3)ccc2n1 [Example 113, 4-Cyclobutylmethoxy-6-(2H-pyrazol-3-yl)-quinazolin-2-ylamine] | 6.00 to 6.52 | 10 to 20
Nc1nc(OCC2CCC2)c2cc(-c3cc4ccccc4o3)ccc2n1 [Example 114, 6-Benzofuran-2-yl-4-cyclobutylmethoxy-quinazolin-2-ylamine] | 5.00 to 6.00 | 10 to 20
Nc1nc(OCC2CCC2)c2cc(-c3ccco3)ccc2n1 [Example 116, 4-Cyclobutylmethoxy-6-furan-2-yl-quinazolin-2-ylamine] | 5.00 to 6.00 | > 20
Nc1nc(OCC2CCC2)c2cc(-c3ccsc3)ccc2n1 [Example 117, 4-Cyclobutylmethoxy-6-thiophen-3-yl-quinazolin-2-ylamine] | 5.00 to 6.00 | 10 to 20
